Data from patent US20230104124A1, “N-PALMITOYLETHANOLAMIDE AND DOCOSAHEXAENOIC ACID FOR USE IN THE TREATMENT OF AUTISM SPECTRUM DISORDER AND OTHER DEPRESSIVE SYNDROMES” (EPITECH GROUP S.P.A., priority 2021, published 2023).

How the values were obtained:
[1] = intravenous infusion; during the 60 hours of administration; cited from earlier work
C57 mice = test: Sociability, three-chamber test in healthy C57 mice; assay type: in vivo; conditions: per os daily for 10 days, PEA-um 1 mg/kg, DHA 5 mg/kg (30 mg/kg DHA 17% titer)
Text: (§1) Healthy male C57BL/6J (C57) mice and 90-day BTBR T+tf/J (BTBR) mice (The Jackson Laboratory, Bar Harbor, ME, USA) fed ad libitum and housed in controlled sleep/wake cycle cages were used in the in vivo trial. Before the start of the experimentation, the animals were subjected to an acclimatization period of 1 week considering all the experimental procedures and protocols, compliant with the principles of care and welfare of laboratory animals approved by the Italian Ministry of Health (Italian Legislative Decree 2014/26) and European directives (EU Directive 2010/63). […]
(§2) All the values reported in the results are expressed as mean ± standard error of the mean (SEM) of N observations (N = number of animals). The statistical differences in the ALLO dosage and behavioral score were analyzed with one-way ANOVA, followed by Sidak’s multiple comparisons. […]
(§3) In the last 10-minute phase, the preference of the mouse in staying in the empty chamber or in the presence of the mouse was evaluated (Crawley JN, Designing mouse behavioral tasks relevant to autistic-like behaviors, Ment. Retard Dev. Disabil. Res. Rev. 2004, 10: 248-258). The time spent in each chamber was detected by a camera coupled to video tracking software.

[2] = tested on: mice with a simil-autistic phenotype; conditions: cited from earlier work
plasma ALLO levels = test: Plasma ALLO neurosteroid levels in BTBR mice; assay type: in vivo; conditions: plasma 10 days after starting daily per os treatment, PEA-um 1 mg/kg, DHA 5 mg/kg (30 mg/kg DHA 17% titer)
Text: as §1, §2

BTBR mice [3] = test: Marble Burying test in BTBR mice; assay type: in vivo; conditions: per os daily for 10 days, PEA-um 1 mg/kg, DHA 5 mg/kg (30 mg/kg DHA 17% titer), 8 animals per group
Text: as §1, §2

autistic children = conditions: PEA-um 600 mg/day, 3-month treatment; cited from earlier work
BTBR mice [4] = test: Self Grooming test in BTBR mice; assay type: in vivo; conditions: monitored for 20 minutes, per os daily for 10 days, PEA-um 1 mg/kg, DHA 5 mg/kg (30 mg/kg DHA 17% titer)
Text: as §1, §2
In the Self Grooming test, the mice were placed in an empty plexiglass cage (30x40 cm) and allowed to freely explore the arena. After 10 minutes of acclimatization, self grooming activity was monitored for 20 minutes. […]

BTBR mice [5] = test: Sociability, three-chamber test in BTBR mice; assay type: in vivo; conditions: per os daily for 10 days, PEA-um 1 mg/kg, DHA 5 mg/kg (30 mg/kg DHA 17% titer)
Text: as §1, §2, §3

Structure (SMILES)	Risks during administration [1]	Sociability (time spent in empty chamber or chamber occupied by a mouse) (C57 mice)	Altered behavioral status [2]	Expression of pro-inflammatory hippocampal and serum cytokines IL-6, IL-1b and TNF-a [2]	Plasma ALLO levels (plasma ALLO levels)	Number of marbles buried in 15 min (obsessive behavior) (BTBR mice [3])	Clinical effect on autistic symptoms (autistic children)	Time spent self-grooming (repetitive behavior) (BTBR mice [4])	Sociability (time spent in empty chamber or chamber occupied by a mouse) (BTBR mice [5])
CC(=O)[C@H]1CC[C@H]2[C@@H]3CC[C@H]4C[C@H](O)CC[C@]4(C)[C@H]3CC[C@]12C [Zulresso, allopregnanolone]	risk of excessive sedation, sudden loss of consciousness or dizziness	–	–	–	–	–	–	–	–
CCCCCCCCCCCCCCCC(=O)NCCO [PEA-um, N-palmitoylethanolamide]	–	enhanced sociability to another mouse	modulating the altered behavioral status	reducing the expression of the pro-inflammatory hippocampal and serum cytokines IL-6, IL-1b and TNF-a	significant reduction in plasma ALLO levels	obsessively bury the marbles	improves aggressiveness, cognitive and behavioral skills, and communication	did not demonstrate any reduction in the time (s) spent self-grooming	did not demonstrate social improvements
